From patent publication US12428394B2, “2,4-disubstituted pyrimidine derivative, preparation method therefor and use thereof” (CHENGDU ZENITAR BIOMEDICAL TECHNOLOGY CO., LTD., priority 2019, dated 2025)

Tests used:
[1] = test system: MV4-11 cells (FLT3-ITD+/+); test: Inhibition of cell proliferation by MTT experiment, MV4-11; assay type: cell-based, human; conditions: Homo sapiens, MV4-11; MTT, 72 h; read-out: IC50 value on cell proliferation inhibition, MV4-11 FLT3-ITD+/+
Description: (§1) MV4-11, MOLM-13 and SET-2 were used to determine the influence of the test compound of the present invention on the activity of cancer cells. MV4-11 and MOLM-13 were human leukemia cell lines from American Type Culture Collection (ATCC), expressing FLT3 receptor and containing FLT3-ITD mutation; and SET-2 was a primary thrombocythemia cell purchased from Chengdu Bowerston Biotechnology Co., Ltd., China, continuously expressing JAK2 receptor and containing the mutation of V617F.
(§2) MV4-11, MOLM-13 and SET-2 cells were filled in a 96-well petri dish with 100 μL IMDM as the medium, containing 10% fetal bovine serum (100 mL/bottle, purchased from Grassland Lvye Bio-Engineering Materials Co., Ltd. and cryopreserved at −20° C.), and with 10,000-15,000 cells in each well. […] In each group, 3-5 replicate wells were set and incubated in 5% CO2 at 37° C. for 72 h. At the endpoint, 20 μL MTT (5 mg/mL) was added to each well, and the cells were incubated for another 1-3 h.
(§3) After the inhibition rate of each concentration of compound on cell proliferation activity was calculated, the dose-response curve and IC50 value were fitted by Graphpad prism software according to the compound treatment concentrations and corresponding inhibition rates.

[2] = test system: MOLM-13 cells (FLT3-ITD-/+); test: Inhibition of cell proliferation by MTT experiment, MOLM-13; assay type: cell-based, human; conditions: Homo sapiens, MOLM-13; MTT, 72 h; read-out: IC50 value on cell proliferation inhibition, MOLM-13 FLT3-ITD-/+
Description: as §1, §2, §3

FLT3 = target: T1, FLT3 (Homo sapiens, UniProt P36888); test: In vitro kinase activity experiment, FLT3; assay type: biochemical; conditions: 40 min; inhibition rate of enzyme at 500 nM; measured by Eurofins; read-out: Kinase activity @ 500 nM (%) FLT3
T1 construct: purchased Eurofins
T1 sequence (P36888 27-993): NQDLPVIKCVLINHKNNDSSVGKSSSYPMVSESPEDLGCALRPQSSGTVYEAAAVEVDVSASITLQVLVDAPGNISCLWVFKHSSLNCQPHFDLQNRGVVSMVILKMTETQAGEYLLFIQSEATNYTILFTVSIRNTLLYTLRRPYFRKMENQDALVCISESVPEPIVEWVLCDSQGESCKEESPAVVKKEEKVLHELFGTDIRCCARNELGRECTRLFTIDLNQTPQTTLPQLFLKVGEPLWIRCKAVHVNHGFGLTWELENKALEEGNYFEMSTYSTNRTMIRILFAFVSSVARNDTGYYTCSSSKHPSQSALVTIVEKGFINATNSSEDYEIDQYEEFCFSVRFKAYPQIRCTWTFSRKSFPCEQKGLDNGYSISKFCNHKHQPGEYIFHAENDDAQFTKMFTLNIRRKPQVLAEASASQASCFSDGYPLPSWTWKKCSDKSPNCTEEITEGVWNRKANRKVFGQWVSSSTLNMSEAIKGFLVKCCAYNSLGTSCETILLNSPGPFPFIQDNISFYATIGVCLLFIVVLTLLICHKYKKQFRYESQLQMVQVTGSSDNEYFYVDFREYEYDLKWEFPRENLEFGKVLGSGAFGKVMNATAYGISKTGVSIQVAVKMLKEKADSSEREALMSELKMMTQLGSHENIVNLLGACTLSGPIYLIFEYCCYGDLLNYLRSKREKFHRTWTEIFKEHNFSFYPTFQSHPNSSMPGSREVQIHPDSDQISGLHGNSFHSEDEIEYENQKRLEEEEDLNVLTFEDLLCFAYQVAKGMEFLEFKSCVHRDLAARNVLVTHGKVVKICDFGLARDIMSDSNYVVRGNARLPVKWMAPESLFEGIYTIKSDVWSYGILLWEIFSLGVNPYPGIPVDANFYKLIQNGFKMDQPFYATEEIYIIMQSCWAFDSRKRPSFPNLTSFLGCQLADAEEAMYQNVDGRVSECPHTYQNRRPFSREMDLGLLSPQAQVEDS
Protocol: (§4) Buffer solution ([…], pH 7.0, 0.2 mm EDTA, 10 mM mncl2), kinase to be tested, substrate of kinase to be tested, 10 mM magnesium acetate and γ33P-ATP solution, and compounds with different concentrations were added to a reaction tube in turn, then MgATP was added to initiate the enzyme reaction process, and incubated at room temperature for 40 min. Then, the reaction was terminated with 5 μl of […], and 10 μl of the reaction solution was titrated onto the Filtermat A membrane, washed with 75 mM phosphate solution for three times, each time for 5 min., and then washed with methanol once. Finally, the Filtermat A membrane was dried and the scintillation count was carried out.

JAK2 = target: T2, JAK2 (Homo sapiens, UniProt O60674); test: In vitro kinase activity experiment, JAK2; assay type: biochemical; conditions: inhibition rate of enzyme at 500 nM; measured by Eurofins
T2 construct: purchased Eurofins
T2 sequence (O60674 whole entry): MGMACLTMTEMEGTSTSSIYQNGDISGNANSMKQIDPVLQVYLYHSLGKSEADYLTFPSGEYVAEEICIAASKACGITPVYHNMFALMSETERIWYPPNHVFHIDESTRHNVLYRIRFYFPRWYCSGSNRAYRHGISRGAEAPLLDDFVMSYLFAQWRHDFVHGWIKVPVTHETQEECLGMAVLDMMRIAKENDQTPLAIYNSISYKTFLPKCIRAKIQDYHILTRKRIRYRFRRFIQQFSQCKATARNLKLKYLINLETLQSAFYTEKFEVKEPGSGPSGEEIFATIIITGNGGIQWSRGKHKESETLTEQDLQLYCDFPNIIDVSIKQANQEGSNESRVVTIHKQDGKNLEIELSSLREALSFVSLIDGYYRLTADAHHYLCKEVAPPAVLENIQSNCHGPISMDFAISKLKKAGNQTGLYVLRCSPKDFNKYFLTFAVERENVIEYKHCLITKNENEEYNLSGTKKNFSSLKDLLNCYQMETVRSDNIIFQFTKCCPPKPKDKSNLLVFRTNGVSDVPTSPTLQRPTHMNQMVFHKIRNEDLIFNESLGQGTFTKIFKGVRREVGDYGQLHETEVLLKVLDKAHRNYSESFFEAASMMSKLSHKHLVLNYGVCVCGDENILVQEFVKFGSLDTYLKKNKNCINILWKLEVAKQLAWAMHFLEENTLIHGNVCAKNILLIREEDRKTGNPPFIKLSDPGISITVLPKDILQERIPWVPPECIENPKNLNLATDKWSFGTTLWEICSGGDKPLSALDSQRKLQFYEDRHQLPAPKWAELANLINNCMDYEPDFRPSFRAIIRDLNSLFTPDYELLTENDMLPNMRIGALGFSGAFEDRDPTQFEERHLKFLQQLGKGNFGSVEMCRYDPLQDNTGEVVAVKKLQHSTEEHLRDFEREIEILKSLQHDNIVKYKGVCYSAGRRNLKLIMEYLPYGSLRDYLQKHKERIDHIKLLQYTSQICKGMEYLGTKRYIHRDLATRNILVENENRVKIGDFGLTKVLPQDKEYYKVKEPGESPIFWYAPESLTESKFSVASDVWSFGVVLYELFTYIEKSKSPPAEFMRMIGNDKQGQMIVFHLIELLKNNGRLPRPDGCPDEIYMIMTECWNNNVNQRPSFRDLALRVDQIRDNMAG
Protocol: as §4

SET-2 cells (JAK2 V617F) = test: Inhibition of cell proliferation by MTT experiment, SET-2; assay type: cell-based; conditions: Homo sapiens, SET-2; MTT, 72 h; read-out: IC50 value on cell proliferation inhibition, SET-2 (V617F)
Description: as §1, §2, §3

| IC50 [1] [nM] | IC50 [2] [nM] | inhibition at 0.5 µM (FLT3) [%] | Kinase activity @ 500 nM (%) JAK2 (JAK2) [%] | SMILES | IC50 (SET-2 cells (JAK2 V617F)) [nM] |
| --- | --- | --- | --- | --- | --- |
| 100 to 1000 | 100 to 1000 | 28 | 38 | CCCn1cc(-c2nc(Nc3ccc(N4CCN(C)CC4)c(F)c3)ncc2F)cn1 [CLJ-7, 5-fluoro-N-(3-fluoro-4-(4-methylpiperazine-1-yl)phenyl)-4-(1-propyl-1H-pyrazol-4-yl) pyrimidine-2-amine] | > 1000 |
| > 1000 | 100 to 1000 | 25 | 37 | CCCCn1cc(-c2nc(Nc3ccc(N4CCN(C)CC4)c(F)c3)ncc2F)cn1 [CLJ-10, 5-fluoro-N-(3-fluoro-4-(4-methylpiperazine-1-yl)phenyl)-4-(1-butyl-1H-pyrazol-4-yl) pyrimidine-2-amine] | > 1000 |
| > 1000 | > 1000 | 20 | 27 | CCCN1CCC(n2cc(-c3nc(Nc4ccc(N5CCN(C)CC5)c(F)c4)ncc3F)cn2)CC1 [CLJ-12, 5-fluoro-N-(3-fluoro-4-(4-methylpiperazine-1-yl)pheny)-4-(1-(1-propylpiperidine-4-yl)-1H-pyrazole-4-yl) pyrimidine-2-amine] | > 1000 |
| 10 to 100 | 100 to 1000 | 95 | 89 | CCCCN1CCC(n2cc(-c3nc(Nc4ccc(N5CCN(C)CC5)c(F)c4)ncc3F)cn2)CC1 [CLJ-13, 5-fluoro-N-(3-fluoro-4-(4-methylpiperazine-1-yl)phenyl)-4-(1-(1-butylpiperidine-4-yl)-1H-pyrazole-4-yl) pyrimidine-2-amine] | > 1000 |
| 10 to 100 | 100 to 1000 | 95 | 96 | CN1CCN(c2ccc(Nc3ncc(F)c(-c4cnn(C5CCCC5)c4)n3)cc2F)CC1 [CLJ-16, 5-fluoro-N-(3-fluoro-4-(4-methylpiperazine-1-yl)phenyl)-4-(1-cyclopentyl-1H-pyrazol-4-yl) pyrimidine-2-amine] | > 1000 |
| 10 to 100 | 100 to 1000 | 94 | 90 | CCN1CCN(c2ccc(Nc3ncc(F)c(-c4cnn(C5CCCC5)c4)n3)cc2F)CC1 [CLJ-17, 5-fluoro-N-(3-fluoro-4-(4-ethylpiperazine-1-yl)phenyl)-4-(1-cyclopentyl-1H-pyrazole-4-yl) pyrimidine-2-amine] | 100 to 1000 |
| 10 to 100 | 100 to 1000 | 93 | 93 | CN(C)C1CCN(c2ccc(Nc3ncc(F)c(-c4cnn(C5CCCC5)c4)n3)cc2F)CC1 [CLJ-18, 5-fluoro-N-(3-fluoro-4-(4-dimethylaminopiperidine-1-yl)phenyl)-4-(1-cyclopentyl-1H-pyrazole-4-yl) pyrimidine-2-amine] | 100 to 1000 |

Second part, the molecule before the results:

| SMILES | IC50 [1] [nM] | IC50 [2] [nM] | inhibition at 0.5 µM (FLT3) [%] | Kinase activity @ 500 nM (%) JAK2 (JAK2) [%] | IC50 (SET-2 cells (JAK2 V617F)) [nM] |
| --- | --- | --- | --- | --- | --- |
| CC(C)N1CCN(Cc2ccc(Nc3ncc(F)c(-c4ccc(CN5CCCC5)o4)n3)nc2)CC1 [CLJ-1, 5-fluoro-N-(5-((4-isopropylpiperazine-1-yl)methyl)pyridine-2-yl)-4-(5-(pyrrolidine-1-ylmethyl)furan-2-yl) pyrimidine-2-amine] | 100 to 1000 | 100 to 1000 | 33 | 46 | > 1000 |
| CCN1CCN(c2ccc(Nc3ncc(F)c(-c4ccc(CN5CCCC5)o4)n3)nc2)CC1 [CLJ-2] | 100 to 1000 | 100 to 1000 | 25 | 30 | > 1000 |
| CC(C)N1CCN(Cc2ccc(Nc3ncc(F)c(-c4ccc(CN5CCc6ccccc65)o4)n3)nc2)CC1 [CLJ-3, 5-fluoro-4-(5-(dihydroindole-1-ylmethyl)furan-2-yl)-N-(5-((4-isopropylpiperazine-1-yl)methyl)pyridine-2-yl) pyrimidine-2-amine] | 100 to 1000 | 100 to 1000 | 29 | 45 | > 1000 |
| CCCn1cc(-c2nc(Nc3cc(CN4CCCC(C)C4)c(F)cn3)ncc2F)cn1 (stereo not shown) [CLJ-4, 5-fluoro-N-(5-fluoro-4-((3-methylpiperidine-1-yl)methyl)pyridine-2-yl)-4-(1-propyl-1H-pyrazole-4-yl) pyrimidine-2-amine] | 100 to 1000 | 100 to 1000 | 28 | 38 | > 1000 |
| CCCn1cc(-c2nc(Nc3cc(CN4CCN(CC)CC4)c(F)cn3)ncc2F)cn1 [CLJ-5, 5-fluoro-N-(5-fluoro-4-((4-ethylpiperazine-1-yl)methyl)pyridine-2-yl)-4-(1-propyl-1H-pyrazole-4-yl) pyrimidine-2-amine] | 100 to 1000 | 100 to 1000 | 34 | 40 | > 1000 |
| CCCn1cc(-c2nc(Nc3ccc(N4CCN(C)CC4)cc3F)ncc2F)cn1 [CLJ-6, 5-fluoro-N-(2-fluoro-4-(4-methylpiperazine-1-yl)phenyl)-4-(1-propyl-1H-pyrazol-4-yl) pyrimidine-2-amine] | > 1000 | > 1000 | 34 | 30 | > 1000 |
| CCCn1cc(-c2nc(Nc3ccc(N4CCN(CC)CC4)cc3F)ncc2F)cn1 [CLJ-8, 5-fluoro-N-(2-fluoro-4-(4-ethylpiperazine-1-yl)phenyl)-4-(1-propyl-1H-pyrazole-4-yl) pyrimidine-2-amine] | 100 to 1000 | 100 to 1000 | 40 | 30 | > 1000 |
| CCCn1cc(-c2nc(Nc3ccc(N4CCN(CC)CC4)c(F)c3)ncc2F)cn1 [CLJ-9, 5-fluoro-N-(3-fluoro-4-(4-ethylpiperazine-1-yl)phenyl)-4-(1-propyl-1H-pyrazole-4-yl) pyrimidine-2-amine] | 10 to 100 | 100 to 1000 | 20 | 27 | > 1000 |
| CCCN1CCC(n2cc(-c3nc(Nc4ccc(N5CCN(C)CC5)cc4)ncc3F)cn2)CC1 [CLJ-11, 5-fluoro-N-(4-(4-methylpiperazine-1-yl)phenyl)-4-(1-(1-propylpiperidine-4-yl)-1H-pyrazole-4-yl) pyrimidine-2-amine] | 10 to 100 | 100 to 1000 | 94 | 78 | > 1000 |
| Cc1c(-c2nc(Nc3ccc(N4CCN(C5CCN(C)CC5)CC4)c(F)c3)ncc2F)cnn1C [CLJ-15] | 10 to 100 | 100 to 1000 | 94 | 93 | > 1000 |
